Results taken from PubChem BioAssay AID330 (DTP/NCI, 2004).
Values joined by “and” are separate entries in the source; they are usually repeats but may differ in a detail not shown here. Equal values may be shown once. Inconclusive results and toxic doses are left out. Rule for the calls: active = survival T/C of 150% or more; inactive = T/C below 125% in these data. Peptide text beside a SMILES is read from it.

System: P388 leukemia ip, CD2F1 mice, survival T/C
Test: NCI In Vivo Anticancer Drug Screen. Data for tumor model P388 Leukemia (intraperitoneal) in CD2F1 (CDF1) mice
Conditions: endpoint: median survival time, higher = longer survival
Procedure, shortened: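 Mice carrying the transplanted tumor received test compound or vehicle. Survival was recorded in each group, and the value is the treated-group measurement divided by that of the vehicle-treated control group.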

[1] = dose: 50.0 mg/kg/injection, schedule: Q01DX005 (ip), vehicle: saline with Tween-80
[2] = dose: 50.0 mg/kg/injection, schedule: Q01DX009 (ip), vehicle: Klucel (hydroxypropylcellulose) (HPC)
[3] = dose: 100.0 mg/kg/injection, schedule: Q01DX009 (ip), vehicle: Klucel (hydroxypropylcellulose) (HPC)
[4] = dose: 50.0 mg/kg/injection, schedule: Q01DX009 (ip), vehicle: saline with Tween-80
[5] = dose: 100.0 mg/kg/injection, schedule: Q01DX009 (ip), vehicle: saline with Tween-80
[6] = dose: 200.0 mg/kg/injection, schedule: Q01DX009 (ip), vehicle: saline with Tween-80
[7] = dose: 50.0 mg/kg/injection, schedule: Q01DX009 (ip), vehicle: saline
[8] = dose: 100.0 mg/kg/injection, schedule: Q01DX009 (ip), vehicle: saline
[9] = dose: 200.0 mg/kg/injection, schedule: Q01DX009 (ip), vehicle: saline
[10] = dose: 50.0 mg/kg/injection, schedule: Q01DX005 (ip), vehicle: Klucel (hydroxypropylcellulose) (HPC)
[11] = dose: 100.0 mg/kg/injection, schedule: Q01DX005 (ip), vehicle: Klucel (hydroxypropylcellulose) (HPC)
[12] = dose: 200.0 mg/kg/injection, schedule: Q01DX005 (ip), vehicle: Klucel (hydroxypropylcellulose) (HPC)
[13] = dose: 25.0 mg/kg/injection, schedule: Q01DX005 (ip), vehicle: Klucel (hydroxypropylcellulose) (HPC)

Measured: T/C

Nc1ccc(N)c2c1C(=O)c1ccccc1C2=O
inactive: [1] 110 % of control | [2] 105 % of control | dose: 100.0 mg/kg/injection, schedule: Q01DX005 (ip), vehicle: saline with Tween-80 105 % of control | [3] 103 % of control | dose: 200.0 mg/kg/injection, schedule: Q01DX005 (ip), vehicle: saline with Tween-80 105 % of control

O=c1c2c([nH]c3ccccc13)CSC2
inactive: [4] 100 % of control | [5] 100 % of control | [6] 97 % of control | dose: 400.0 mg/kg/injection, schedule: Q01DX009 (ip), vehicle: saline with Tween-80 100 % of control

CC(C)C(NC(=O)C1CCCN1)C(=O)O (stereo not drawn) (H-Pro-Val-OH; configuration not given here)
inactive: [7] 103 % of control | [8] 99 % of control | [9] 100 % of control

CC1(C)c2ccccc2-c2nc3ccccc3cc2C1O (stereo not drawn)
inactive: dose: 25.0 mg/kg/injection, schedule: Q01DX001 (ip), vehicle: saline 96 % of control | dose: 50.0 mg/kg/injection, schedule: Q01DX001 (ip), vehicle: saline 103 % of control | dose: 100.0 mg/kg/injection, schedule: Q01DX001 (ip), vehicle: saline 101 % of control | dose: 200.0 mg/kg/injection, schedule: Q01DX001 (ip), vehicle: saline 103 % of control

C[N+]1([O-])CC[N+](C)([O-])CC1 (stereo not drawn)
inactive: dose: 60.0 mg/kg/injection, schedule: Q01DX005 (ip), vehicle: saline 103 % of control | dose: 120.0 mg/kg/injection, schedule: Q01DX005 (ip), vehicle: saline 96 % of control | dose: 240.0 mg/kg/injection, schedule: Q01DX005 (ip), vehicle: saline 100 % of control

Cc1cccc(-c2nc(=S)nc(N)s2)c1
inactive: dose: 100.0 mg/kg/injection, schedule: Q01DX001 (ip), vehicle: saline with Tween-80 95 % of control | dose: 200.0 mg/kg/injection, schedule: Q01DX001 (ip), vehicle: saline with Tween-80 93 % of control

COc1cc2ccc3c4cc(OC)c(OC)cc4c[n+](C)c3c2cc1O
inactive: dose: 50.0 mg/kg/injection, schedule: Q04DX009 (ip), vehicle: Klucel (hydroxypropylcellulose) (HPC) 117 % of control | dose: 100.0 mg/kg/injection, schedule: Q04DX009 (ip), vehicle: Klucel (hydroxypropylcellulose) (HPC) 122 % of control

COc1ccc(CCNc2cc3ncn(C)c(=O)c3cc2[N+](=O)[O-])cc1OC
inactive: dose: 100.0 mg/kg/injection, schedule: Q04DX003 (ip), vehicle: Klucel (hydroxypropylcellulose) (HPC) 101 % of control | dose: 200.0 mg/kg/injection, schedule: Q04DX003 (ip), vehicle: Klucel (hydroxypropylcellulose) (HPC) 100 % of control | dose: 400.0 mg/kg/injection, schedule: Q04DX003 (ip), vehicle: Klucel (hydroxypropylcellulose) (HPC) 86 % of control

CC1(C)CC(=O)C(C2=NCCCC2)=C(O)C1
inactive: dose: 100.0 mg/kg/injection, schedule: Q04DX002 (ip), vehicle: saline with Tween-80 102 % of control | dose: 200.0 mg/kg/injection, schedule: Q04DX002 (ip), vehicle: saline with Tween-80 100 % of control | dose: 400.0 mg/kg/injection, schedule: Q04DX002 (ip), vehicle: saline with Tween-80 100 % of control

CN1[C@@H]2CC[C@H]1CC(O)(c1ccccc1)C2 (stereo partly drawn)
inactive: dose: 12.5 mg/kg/injection, schedule: Q01DX005 (ip), vehicle: saline 94 % of control | dose: 25.0 mg/kg/injection, schedule: Q01DX005 (ip), vehicle: saline 96 % of control | [1] 99 % of control | dose: 50.0 mg/kg/injection, schedule: Q01DX005 (ip), vehicle: saline 92 % of control

Nc1ccc(N=C2C=CC(=O)C=C2)c(N)c1
inactive: dose: 12.5 mg/kg/injection, schedule: Q01DX009 (ip), vehicle: saline 102 % of control and 90 % of control | dose: 25.0 mg/kg/injection, schedule: Q01DX009 (ip), vehicle: saline 103 % of control and 112 % of control | [7] 105 % of control | [8] 112 % of control

O=C(CC(=O)c1ccccc1)c1ccccc1.[Tl]
inactive: dose: 6.25 mg/kg/injection, schedule: Q01DX009 (ip), vehicle: saline with Tween-80 100 % of control | dose: 12.5 mg/kg/injection, schedule: Q01DX009 (ip), vehicle: saline with Tween-80 98 % of control

CCN(CC)c1c(C)c(-c2ccccc2)n[n+]([O-])c1-c1ccccc1
inactive: dose: 100.0 mg/kg/injection, schedule: Q01DX001 (ip), vehicle: Klucel (hydroxypropylcellulose) (HPC) 104 % of control | dose: 200.0 mg/kg/injection, schedule: Q01DX001 (ip), vehicle: Klucel (hydroxypropylcellulose) (HPC) 107 % of control | dose: 400.0 mg/kg/injection, schedule: Q01DX001 (ip), vehicle: Klucel (hydroxypropylcellulose) (HPC) 104 % of control

CN(C)c1nnnn1Cc1ccccc1
inactive: [10] 97 % of control | [11] 97 % of control | [12] 106 % of control

NC(CCN[N+](=O)[O-])C(=O)O (stereo not drawn)
inactive: [13] 103 % of control | [10] 97 % of control | [11] 96 % of control | [12] 97 % of control

COc1nc(C(Br)Br)c([N+](=O)[O-])c(N2CCOCC2)n1
inactive: [13] 109 % of control | [10] 101 % of control | [11] 87 % of control

CSc1nc2cc(S(=O)(=O)C(F)F)ccc2s1
inactive: dose: 6.25 mg/kg/injection, schedule: Q01DX009 (ip), vehicle: Klucel (hydroxypropylcellulose) (HPC) 94 % of control | dose: 12.5 mg/kg/injection, schedule: Q01DX009 (ip), vehicle: Klucel (hydroxypropylcellulose) (HPC) 94 % of control

NC1(C(=O)O)CCCC1.O.[Cl][Au]
inactive: dose: 60.0 mg/kg/injection, schedule: Q01DX005 (ip), vehicle: saline with Tween-80 110 % of control

CCOC(=O)c1ccc[nH]1
inactive: dose: 25.0 mg/kg/injection, schedule: Q01DX009 (ip), vehicle: saline with Tween-80 104 % of control | [4] 108 % of control | [5] 112 % of control | [6] 103 % of control

CC(=O)C1C(=O)C(=O)N(c2ccccc2[N+](=O)[O-])C1=O (stereo not drawn)
inactive: dose: 12.5 mg/kg/injection, schedule: Q01DX005 (ip), vehicle: saline with Tween-80 101 % of control | dose: 25.0 mg/kg/injection, schedule: Q01DX005 (ip), vehicle: saline with Tween-80 107 % of control | [1] 100 % of control and 113 % of control

O=S1(=O)CCN(CCCCc2ccccc2)CC1
inactive: [2] 94 % of control | [3] 101 % of control | dose: 200.0 mg/kg/injection, schedule: Q01DX009 (ip), vehicle: Klucel (hydroxypropylcellulose) (HPC) 101 % of control

OCC1CC(O)CN2CCc3c([nH]c4ccccc34)C2C1 (stereo not drawn)
inactive: dose: 12.5 mg/kg/injection, schedule: Q01DX005 (ip), vehicle: Klucel (hydroxypropylcellulose) (HPC) 99 % of control | [13] 99 % of control | [10] 101 % of control

CCCCC[CH2][Sn]([CH2]C)([CH2]C)[O]C(C)=O
inactive: dose: 0.5 mg/kg/injection, schedule: Q01DX009 (ip), vehicle: saline with Tween-80 109 % of control | dose: 1.0 mg/kg/injection, schedule: Q01DX009 (ip), vehicle: saline with Tween-80 113 % of control | dose: 2.0 mg/kg/injection, schedule: Q01DX009 (ip), vehicle: saline with Tween-80 109 % of control

NCC(O)c1ccc(O)cc1 (stereo not drawn)
inactive: [7] 101 % of control and 111 % of control | [8] 106 % of control and 108 % of control | [9] 106 % of control and 90 % of control | dose: 400.0 mg/kg/injection, schedule: Q01DX009 (ip), vehicle: saline 89 % of control and 96 % of control | dose: 600.0 mg/kg/injection, schedule: Q01DX009 (ip), vehicle: saline 89 % of control and 90 % of control

COc1ccc(CC2=CC(=O)C(=O)C=C2C)cc1
inactive: dose: 2.5 mg/kg/injection, schedule: Q01DX009 (ip), vehicle: saline + alcohol 101 % of control | dose: 5.0 mg/kg/injection, schedule: Q01DX009 (ip), vehicle: saline + alcohol 100 % of control | dose: 10.0 mg/kg/injection, schedule: Q01DX009 (ip), vehicle: saline + alcohol 102 % of control

CCCCN(CCCC)S(=O)(=O)N1CCCCC1
inactive: dose: 50.0 mg/kg/injection, schedule: Q04DX002 (ip), vehicle: saline 105 % of control | dose: 100.0 mg/kg/injection, schedule: Q04DX002 (ip), vehicle: saline 98 % of control | dose: 200.0 mg/kg/injection, schedule: Q04DX002 (ip), vehicle: saline 96 % of control | dose: 400.0 mg/kg/injection, schedule: Q04DX002 (ip), vehicle: saline 100 % of control
